Results taken from ChEMBL document CHEMBL1158100, “Sesquiterpenes from Thapsia nitida var. meridionalis and Thapsia nitida var. nitida” (J Nat Prod, 2006).
Activity calls are given as the source filed them. The calls are words filed in the database; no cut-off is given here.

test: Inhibition of sarcoplasmic/endoplasmic reticulum calcium ATPase at upto 100 uM

| Activity | Structure (SMILES) |
| --- | --- |
| inactive | C=C1CC[C@@H]2[C@@H](OC(=O)[C@@]2(C)OC(=O)/C(C)=C\C)[C@H]2[C@@H]1C[C@@H](OC(C)=O)[C@@]2(C)O |
| inactive | C=C1CC[C@@H]2[C@@H](OC(=O)[C@@]2(C)OC(=O)/C(C)=C\C)[C@@H]2C(C)=CC[C@H]12 |
| inactive | C=C1CC[C@@H]2[C@@H](OC(=O)[C@@]2(C)OC(=O)/C(C)=C/C)[C@H]2[C@@H]1C[C@@H](OC(C)=O)[C@@]2(C)O |
| inactive | C=C1C(=O)O[C@@H]2[C@H]1CC[C@]1(C)[C@@H]3O[C@@H]3[C@H](OC(=O)CC(C)C)C(=C)[C@@H]21 |
| inactive | C/C=C(/C)C(=O)O[C@]1(C)C(=O)O[C@H]2[C@@H]3C(C)=CC[C@@H]3[C@@](C)(O)CC[C@H]21 |
| inactive | C=C1C(=O)O[C@@H]2[C@H]1CC[C@]1(C)[C@@H]3O[C@@H]3[C@H](OC(=O)C=C(C)C)C(=C)[C@@H]21 |

test: Inhibition of sarcoplasmic/endoplasmic reticulum calcium ATPase at upto 10 uM

| Activity | Structure (SMILES) |
| --- | --- |
| inactive | C=C1C(=O)O[C@@H]2[C@H]1CC[C@]1(C)[C@@H]3O[C@@H]3[C@H](OC(=O)C=C(C)C)C(=C)[C@@H]21 |
